Source: patent US8232284B2, “Heteroaryloxy quinazoline derivative” (MSD K. K., priority 2007, dated 2012)
pEC50: −log10 of the molar value. Where a name gives a salt, the structure may show the parent alone.

Target: T1, recombinant human liver GK (Homo sapiens, UniProt P35557)
T1 construct: made in house; host or cells: E. coli
T1 sequence (P35557 1-466 isoform P35557-2): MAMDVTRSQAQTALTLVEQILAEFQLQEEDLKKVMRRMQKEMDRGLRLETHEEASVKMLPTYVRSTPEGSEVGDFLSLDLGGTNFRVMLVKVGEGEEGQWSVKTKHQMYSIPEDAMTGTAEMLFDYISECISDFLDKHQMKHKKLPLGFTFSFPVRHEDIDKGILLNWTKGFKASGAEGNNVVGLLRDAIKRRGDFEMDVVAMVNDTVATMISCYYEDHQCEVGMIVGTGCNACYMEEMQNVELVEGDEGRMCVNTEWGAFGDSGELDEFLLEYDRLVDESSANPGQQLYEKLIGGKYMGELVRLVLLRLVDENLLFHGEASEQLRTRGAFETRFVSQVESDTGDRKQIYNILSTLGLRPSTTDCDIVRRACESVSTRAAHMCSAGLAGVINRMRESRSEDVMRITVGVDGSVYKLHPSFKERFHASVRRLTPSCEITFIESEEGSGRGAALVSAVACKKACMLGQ
Test: Glucokinase-activating effect (Thio-NADH coupled assay with G6PDH, 2.5 mM glucose)
Assay type: biochemical
Details: OD level of DMSO control set as 100%; final glucose concentration 2.5 mM; 30° C.
Text: The excellent glucokinase-activating effect of the compounds of the formula (I) may be determined by a method described in literature (for example, Diabetes, Vol. 45, pp. 1671-1677, 1996), or in accordance with it.
The glucokinase activity may be determined not by directly measuring glucose-6-phosphate but by measuring the level of Thio-NADH, which is produced when a reporter enzyme, glucose-6-phosphate dehydrogenase produces phosphogluconolactone from glucose-6-phosphate, and based on the level, the degree of glucokinase activation by the compound tested may be determined
In this assay, used was a recombinant human liver GK, which was expressed by E. coli as a FLAG fusion protein therein and was purified by ANTIFLAG M2 AFFINITY GEL (Sigma).
Using a flat-bottomed 96-well plate, the assay was carried out at 30° C. 69 μl of an assay buffer (25 mM Hepes Buffer/pH=7.2, 2 mM MgCl2, 1 mM ATP, 0.5 mM TNAD, 1 mM dithiothreitol) was put into the plate, and 1 μl of a DMSO solution of the compound or DMSO alone as a control was added thereto. Next, 20 μl of an enzyme mixture (FLAG-GK, 20 U/ml G6PDH) cooled in ice was added to it, and 10 μl of a substrate, 25 mM glucose was added to it, and the reaction was initiated (final glucose concentration=2.5 mM).
After the start of the reaction, the increase in the absorbance at 405 nm was measured for 12 minutes at intervals of 30 seconds, and the increase for the first 5 minutes was used for assessing the compound tested. FLAG-GK was added so that the absorbance increase after 5 minutes in the presence of 1% DMSO could be from 0.04 to 0.06.
The OD level of the DMSO control was set as 100%; and the OD level of the test compound at different concentrations was determined. From the OD level at each concentration, Emax (%) and EC50 (μM) were computed and used as the index of the GK-activating potency of the compound.
The comparative test was conducted to compare the compound of example 18, 31 and 32 in this invention with the compound (A) in the patent document 1. The test method in vitro was similar to pharmacological experiment 1 (glucokinase-activating effect).

| SMILES | Emax [%] |
| --- | --- |
| CN(C)CCOc1ccc(Oc2ccc3ncnc(Nc4ccn(C)n4)c3c2)cn1 [Example 3, 6-({6-[2-(dimethylamino)ethoxy]pyridin-3-yl}oxy)-N-(1-methyl-1H-pyrazol-3-yl)quinazoline-4-amine] | 918 |
| CN(C)CCOc1ncc(Oc2ccc3ncnc(Nc4ccn(C)n4)c3c2)cn1 [Example 7, 6-({2-[2-(dimethylamino)ethoxy]pyrimidin-5-yl}oxy)-N-(1-methyl-1H-pyrazol-3-yl)quinazoline-4-amine] | 695 |
| Cc1cnc(Nc2ncnc3ccc(Oc4ncc(OCCCO)cc4Cl)cc23)cn1 [Example 61, 3-{[5-chloro-6-({4-[(5-methylpyrazin-2-yl)amino]quinazolin-6-yl}oxy)pyridin-3-yl]oxy}propan-1-ol] | 888 |
| CN(C)CCN(C)C(=O)c1ccnc(Oc2ccc3ncnc(Nc4ccn(C)n4)c3c2)c1Cl [Example 67, 3-chloro-N-[2-(dimethylamino)ethyl]-N-methyl-2-({4-[(1-methyl-1H-pyrazol-3-yl)amino]quinazolin-6-yl}oxy)isonicotinamide] | 598 |
| CNCCOc1cnc(Oc2ccc3ncnc(Nc4ccn(C)n4)c3c2)c(C)c1 [Example 70, N-methyl-2-{[5-methyl-6-({4-[(1-methyl-1H-pyrazol-3-yl)amino]quinazolin-6-yl}oxy)pyridin-3-yl]oxy}ethanamine hydrochloride] | 979 |

Same assay, conditions: final glucose concentration 2.5 mM; 30° C.; read-out: EC50

| SMILES | pEC50 |
| --- | --- |
| CN(C)CCOc1cnc(Oc2ccc3ncnc(Nc4ccn(C)n4)c3c2)c(Cl)c1 [Example 1, 6-({3-chloro-5-[2-(dimethylamino)ethoxy]pyridin-2-yl}oxy)-N-(1-methyl-1H-pyrazol-3-yl)quinazoline-4-amine] | 7.10 |
| CN(C)CCOc1cnc(Cl)c(Oc2ccc3ncnc(Nc4ccn(C)n4)c3c2)c1 [Example 2, 6-({2-chloro-5-[2-(dimethylamino)ethoxy]pyridin-3-yl}oxy)-N-(1-methyl-1H-pyrazol-3-yl)quinazoline-4-amine] | 6.38 |
| CN(C)CCOc1ccc(Oc2ccc3ncnc(Nc4ccn(C)n4)c3c2)cn1 [Example 3, 6-({6-[2-(dimethylamino)ethoxy]pyridin-3-yl}oxy)-N-(1-methyl-1H-pyrazol-3-yl)quinazoline-4-amine] | 5.76 |
| CN(C)CCCOc1ccc(Oc2ccc3ncnc(Nc4ccn(C)n4)c3c2)nc1 [Example 4, 6-({5-[3-(dimethylamino)propoxy]pyridin-2-yl}oxy)-N-(1-methyl-1H-pyrazol-3-yl)quinazoline-4-amine] | 6.42 |
| CC(C)NCCOc1ccc(Oc2ccc3ncnc(Nc4ccn(C)n4)c3c2)nc1 [Example 5, 6-({5-[2-(isopropylamino)ethoxy]pyridin-2-yl}oxy)-N-(1-methyl-1H-pyrazol-3-yl)quinazoline-4-amine] | 6.59 |
| CN(C)CCOc1ncc(Oc2ccc3ncnc(Nc4ccn(C)n4)c3c2)cn1 [Example 7, 6-({2-[2-(dimethylamino)ethoxy]pyrimidin-5-yl}oxy)-N-(1-methyl-1H-pyrazol-3-yl)quinazoline-4-amine] | 5.16 |
| CN(C)CCOc1cnc(Oc2ccc3ncnc(Nc4ccn(C)n4)c3c2)nc1 [Example 8, 6-({5-[2-(dimethylamino)ethoxy]pyrimidin-2-yl}oxy)-N-(1-methyl-1H-pyrazol-3-yl)quinazoline-4-amine] | 5.88 |
| CCNCCCOc1cnc(Oc2ccc3ncnc(Nc4ccn(C)n4)c3c2)c(Cl)c1 [Example 20, 6-({3-chloro-5-[3-(ethylamino)propoxy]pyridin-2-yl}oxy)-N-(1-methyl-1H-pyrazol-3-yl)quinazoline-4-amine hydrochloride] | 7.40 |
| Cn1ccc(Nc2ncnc3ccc(Oc4ncc(OC5CNC5)cc4Cl)cc23)n1 [Example 23, 6-{[5-(azetidin-3-yloxy)-3-chloropyridin-2-yl]oxy}-N-(1-methyl-1H-pyrazol-3-yl)quinazoline-4-amine hydrochloride] | 7.30 |
| CCN1CC(Oc2cnc(Oc3ccc4ncnc(Nc5ccn(C)n5)c4c3)c(F)c2)C1 [Example 25, 6-({5-[(1-ethylazetidin-3-yl)oxy]-3-fluoropyridin-2-yl}oxy)-N-(1-methyl-1H-pyrazol-3-yl)quinazoline-4-amine hydrochloride] | 6.64 |
| Cc1cnc(Nc2ncnc3ccc(Oc4ncc(OCCN(C)C)cc4C)cc23)cn1 [Example 34, 6-({5-[2-(dimethylamino)ethoxy]-3-methylpyridin-2-yl}oxy)-N-(5-methylpyrazin-2-yl)quinazoline-4-amine hydrochloride] | 7.15 |
| Cc1cnc(Nc2ncnc3ccc(Oc4ncc(OCCN(C)C)cc4Cl)cc23)cn1 [Example 35, 6-({3-chloro-5-[2-(dimethylamino)ethoxy]pyridin-2-yl}oxy)-N-(5-methylpyrazin-2-yl)quinazoline-4-amine] | 7.00 |
| Cc1cnc(Nc2ncnc3ccc(Oc4ccc(OCCNC(C)C)cn4)cc23)cn1 [Example 37, 6-({5-[2-(isopropylamino)ethoxy]pyridin-2-yl}oxy)-N-(5-methylpyrazin-2-yl)quinazoline-4-amine] | 6.42 |
| Cc1cnc(Nc2ncnc3ccc(Oc4ncc(OCCNC(C)C)cc4F)cc23)cn1 [Example 40, 6-({3-fluoro-5-[2-(isopropylamino)ethoxy]pyridin-2-yl}oxy)-N-(5-methylpyrazin-2-yl)quinazoline-4-amine hydrochloride] | 6.46 |
| CN(C)CCOc1cnc(Oc2ccc3ncnc(Nc4cnccn4)c3c2)c(Cl)c1 [Example 44, 6-({3-chloro-5-[2-(dimethylamino)ethoxy]pyridin-2-yl}oxy)-N-pyrazin-2-ylquinazoline-4-amine] | 6.59 |
| COc1ccc2nc(Nc3ncnc4ccc(Oc5ncc(OCCN(C)C)cc5Cl)cc34)sc2n1 [Example 46, 6-({3-chloro-5-[2-(dimethylamino)ethoxy]pyridin-2-yl}oxy)-N-(5-methoxy-[1,3]thiazolo[5,4-b]pyridin-2-yl)quinazoline-4-amine] | 6.96 |
| Cc1nsc(Nc2ncnc3ccc(Oc4ccc(OCCN(C)C)cn4)cc23)n1 [Example 47, 6-({5-[2-(dimethylamino)ethoxy]pyridin-2-yl}oxy)-N-(3-methyl-1,2,4-thiadiazol-5-yl)quinazoline-4-amine] | 6.54 |
| Cn1ccc(Nc2ncnc3ccc(Oc4ncc(OCCO)cc4F)cc23)n1 [Example 54, 2-{[5-fluoro-6-({-4-[(1-methyl-1H-pyrazol-3-yl)amino]quinazolin-6-yl}oxy)pyridin-3-yl]oxy}ethanol] | 6.44 |
| Cc1cnc(Nc2ncnc3ccc(Oc4ncc(OCCO)cc4Cl)cc23)cn1 [Example 58, 2-{[5-chloro-6-({4-[(5-methylpyrazin-2-yl)amino]-1quinazolin-6-yl}oxy)pyridin-3-yl]oxy}ethanol] | 6.70 |
| Cc1cnc(Nc2ncnc3ccc(Oc4ncc(OCCCO)cc4Cl)cc23)cn1 [Example 61, 3-{[5-chloro-6-({4-[(5-methylpyrazin-2-yl)amino]quinazolin-6-yl}oxy)pyridin-3-yl]oxy}propan-1-ol] | 6.39 |
| CN(C)CCCN(C)S(=O)(=O)c1cnc(Oc2ccc3ncnc(Nc4ccn(C)n4)c3c2)c(Cl)c1 [Example 64, 5-chloro-N-[3-(dimethylamino)propyl]-N-methyl-6-({4-[(1-methyl-1H-pyrazol-3-yl)amino]quinazolin-6-yl}oxy)pyridine-3-sulfonamide] | 5.94 |
| CN(C)CCN(C)C(=O)c1cnc(Oc2ccc3ncnc(Nc4ccn(C)n4)c3c2)c(Cl)c1 [Example 65, 5-chloro-N-[2-(dimethylamino)ethyl]-N-methyl-6-({4-[(1-methyl-1H-pyrazol-3-yl)amino]quinazolin-6-yl}oxy)nicotinamide] | 6.39 |
| CN(C)CCN(C)C(=O)c1ccnc(Oc2ccc3ncnc(Nc4ccn(C)n4)c3c2)c1Cl [Example 67, 3-chloro-N-[2-(dimethylamino)ethyl]-N-methyl-2-({4-[(1-methyl-1H-pyrazol-3-yl)amino]quinazolin-6-yl}oxy)isonicotinamide] | 5.22 |
| CNCCOc1cnc(Oc2ccc3ncnc(Nc4ccn(C)n4)c3c2)c(C)c1 [Example 70, N-methyl-2-{[5-methyl-6-({4-[(1-methyl-1H-pyrazol-3-yl)amino]quinazolin-6-yl}oxy)pyridin-3-yl]oxy}ethanamine hydrochloride] | 7.59 |
| CC(C)NCCOc1ccc(Oc2ccc3ncnc(Nc4cnn(C)n4)c3c2)nc1 [Example 76, N-(2-{[6-({4-[(2-methyl-2H-1,2,3-triazol-4-yl)amino]quinazolin-6-yl}oxy)pyridin-3-yl]oxy}ethyl)propan-2-amine hydrochloride] | 6.64 |
